Test results published in ChEMBL document CHEMBL1151144, “Annonaceous acetogenins: a review” (J Nat Prod, 1990).
Converted amounts (≈) assume the structure as drawn.

Columns and labels:
[1] = Cytotoxicity against human 9KB cells; assay type: functional; settings: for EC50: Homo sapiens, 9KB, read-out: ED50 (the source's name)
A549 = test: Cytotoxicity against human A549 cells; assay type: functional; settings: for EC50: Homo sapiens, A549, read-out: ED50 (the source's name)
HT-29 = test: Cytotoxicity against human HT-29 cells; assay type: functional; settings: for EC50: Homo sapiens, HT-29, read-out: ED50 (the source's name)
Artemia = test: Toxicity against brine shrimp; assay type: organism-based; settings: in vivo
[2] = Cytotoxicity against mouse 9PS cells; assay type: functional; settings: for EC50: Mus musculus, read-out: ED50 (the source's name)
MCF7 = test: Cytotoxicity against human MCF7 cells; assay type: functional; settings: for EC50: Homo sapiens, MCF7, read-out: ED50 (the source's name)
[3] = test system: Agrobacterium tumefaciens; test: Antitumor activity assessed as inhibition of Agrobacterium tumefaciens-induced tumor formation by potato disk assay; assay type: functional
[4] = Antimitotic activity in rat 9ASK cells assessed as reversal of astrocyte formation at 10 ug/mL; assay type: functional
L1210 [5] = test: In vivo antitumor activity against mouse L1210 cells at 0.4 mg/kg relative to control; assay type: functional
[6] = In vivo antitumor activity against mouse 3PS cells at 1.4 mg/kg relative to control; assay type: functional
L1210 [7] = test: Cytotoxicity against mouse L1210 cells; assay type: functional; settings: read-out: ED50 (the source's name)
Plasmodium falciparum [8] = test: Antiplasmodial activity against chloroquine-sensitive Plasmodium falciparum W2; assay type: functional, organism-based
[9] = Antimitotic activity in rat 9ASK cells assessed as reversal of astrocyte formation; assay type: functional
[10] = (§1) In vivo antitumor activity against mouse 3PS cells at 0.95 mg/kg relative to control; assay type: functional
[11] = Antimitotic activity in rat 9ASK cells assessed as reversal of astrocyte formation at 100 ug/mL; assay type: functional
Calliphora vicina [12] = test: Pesticidal activity against Blowfly larvae assessed as mortality at 10000 ppm; assay type: functional
Calliphora vicina [13] = test: Pesticidal activity against Blowfly larvae assessed as mortality at 1% drug concentration; assay type: functional
Plasmodium falciparum [14] = test: Antiplasmodial activity against chloroquine-sensitive Plasmodium falciparum D6; assay type: functional, organism-based
Aedes aegypti = test: Pesticidal activity against Aedes aegypti larvae assessed as mortality at 10 ppm; assay type: functional
[15] = as §1; assay type: functional; remark: listed apart in the source
[16] = In vivo antitumor activity against mouse 3PS cells at 0.25 mg/kg relative to control; assay type: functional

CCCC(O)CCC(O)CCC(O)C1CCC(C2CCC(C(O)CCCCCCCCCCCCCC3=CC(C)OC3=O)O2)O1 (stereo not given) [CHERIMOLINE]
ED50 [1]: 6 ×10⁻¹² ug/ml
EC50 (A549): 0.001 µg/mL (≈ 0.00157 µM)
EC50 (HT-29): > 0.001 µg/mL
LC50 (Artemia): 1.24 ppm
EC50 [2]: < 0.01 µg/mL

CCCCCCCCCCCC[C@H](O)[C@@H]1CC[C@@H]([C@@H](O)CCCCC(O)CCCCCC2CC(CC(C)=O)C(=O)O2)O1 (stereo not given in full) [ISOANNONACIN]
EC50 (A549): 0.02 µg/mL (≈ 0.0335 µM)
EC50 (HT-29): 0.002 µg/mL (≈ 0.00335 µM)
EC50 [2]: 3 µg/mL (≈ 5.03 µM)

CCCCCCCCCCCC[C@@H](O)[C@H]1CC[C@H]([C@H](O)CC[C@H](O)[C@@H]2CC[C@@H](CCCCC[C@@H](O)CC3=C[C@H](C)OC3=O)O2)O1 [GIGANTECIN]
ED50 (MCF7): 4.11 ×10⁻⁹ ug/ml
inhibition (INH) [3]: 83%
ED50 [1]: <1 ×10⁻⁵ ug/ml
Activity [4]: 31%
ED50 (A549): 2.19 ×10⁻⁷ ug/ml
ED50 (HT-29): 2.68 ×10⁻⁴ ug/ml
LC50 (Artemia): 222 ppm
ED50 [2]: <1 ×10⁻⁵ ug/ml

CCCCCCC(O)CCCC(O)C1CCC(C2CCC(C(O)CCCCCCCCCCCCC3=CC(C)OC3=O)O2)O1 (stereo not given) [ISOROLLINICIN]
EC50 [2]: 0.01 µg/mL (≈ 0.0161 µM)

CCCCCCCCC[C@@H](O)[C@@H](O)[C@@H]1CC[C@@H]([C@@H]2CC[C@@H]([C@@H](O)CCCCCCCCCCCCC3=CC(C)OC3=O)O2)O1 (stereo not given in full) [ROLLINICIN]
ED50 [2]: 2.9 ×10⁻⁸ ug/ml

CCCCCCCCCC[C@H](O)[C@H]1CC[C@H]([C@H]2CC[C@H]([C@H](O)CCCCCCCCCC[C@@H]3CC(CC(C)=O)C(=O)O3)O2)O1 (stereo not given in full) [BULLATACINONE]
inhibition (INH) [3]: 15%
LC50 (Artemia): 0.003 ppm
T/C (L1210 [5]): 144%

CCCCCCCCC[C@@H](OC(C)=O)[C@H](OC(C)=O)[C@@H]1CC[C@@H]([C@@H]2CC[C@@H]([C@@H](CCCCCCCCCCCCC3=CC(C)OC3=O)OC(C)=O)O2)O1 (stereo not given in full) [ROLLINICIN TRIACETATE]
ED50 [2]: 2.6 ×10⁻⁴ ug/ml

CCCCCCCCCC[C@H](OC(C)=O)[C@H]1CC[C@H]([C@H]2CC[C@H]([C@H](O)CCCCCCCCCCCCC3=C[C@H](C)OC3=O)O2)O1 [UVARICIN]
T/C [6]: 157%

CCCCCCCCCCCC[C@H](O)[C@@H]1CC[C@@H]([C@@H](O)CCCCC(=O)CCCCCC2CC(CC(C)=O)C(=O)O2)O1 (stereo not given in full) [ISOANNONACINONE]
EC50 (A549): 0.07 µg/mL (≈ 0.118 µM)
EC50 (HT-29): 0.009 µg/mL (≈ 0.0151 µM)
EC50 [2]: 0.5 µg/mL (≈ 0.841 µM)

CCCCCCCCCC[C@H](O)[C@H]1CC[C@H]([C@H](O)CC[C@H](O)[C@@H]2CC[C@@H](CCCCCCC[C@@H](O)CC3=C[C@H](C)OC3=O)O2)O1 [BULLATALICIN]
EC50 (MCF7): 2.34 µg/mL (≈ 3.66 µM)
inhibition (INH) [3]: 63%
EC50 [1]: > 10 µg/mL
ED50 (A549): 2.34 ×10⁻⁷ ug/ml
ED50 (HT-29): 8.8 ×10⁻⁶ ug/ml
LC50 (Artemia): 0.154 ppm

CCCCCC[C@H](O)CCC[C@H](O)[C@H]1CC[C@H]([C@H]2CC[C@H]([C@H](O)CCCCCCCCCCCCC3=C[C@H](C)OC3=O)O2)O1 [SQUAMOCIN]
EC50 (L1210 [7]): 0.58 µg/mL (≈ 0.931 µM)

CCCCCCCCCC[C@@H](OC(C)=O)[C@H]1CC[C@H]([C@@H](CC[C@@H](OC(C)=O)[C@@H]2CCC(CCCCCCC[C@@H](CC3=C[C@@H](C)OC3=O)OC(C)=O)O2)OC(C)=O)O1 (stereo not given in full) [BULLATALICIN TETRAACETATE]
EC50 (MCF7): < 0.001 µg/mL
EC50 (A549): < 0.001 µg/mL
EC50 (HT-29): 1.35 µg/mL (≈ 1.67 µM)

CCCCCCCCCCCC[C@@H](O)[C@H]1CC[C@H]([C@H](O)CCCC[C@H](O)CCCCC[C@@H](O)CC2=CC(C)OC2=O)O1 (stereo not given in full) [ANNONACIN]
IC50 (Plasmodium falciparum [8]): 1.51 µg/mL (≈ 2.53 µM)
IC90 (Plasmodium falciparum [8]): 74.7 µg/mL (≈ 125 µM)
Activity [9]: 51%
inhibition (INH) [3]: 72%
T/C [10]: 124%
EC50 [1]: 0.001 µg/mL (≈ 0.00168 µM)
Activity [11]: 15%
Activity (Calliphora vicina [12]): 100%
Activity (Calliphora vicina [13]): 100%
IC50 (Plasmodium falciparum [14]): 1.3 µg/mL (≈ 2.18 µM)
IC90 (Plasmodium falciparum [14]): 12.4 µg/mL (≈ 20.9 µM)
Activity (Aedes aegypti): 70%
EC50 (A549): 0.001 µg/mL (≈ 0.00168 µM)
EC50 (HT-29): 3 µg/mL (≈ 5.03 µM)
LC50 (Artemia): 3.3 ppm
ED50 [2]: 1 ×10⁻⁵ ug/ml
T/C [15]: 124%

CCCC(O)CCC(O)CCC(O)C1CCC(C2CCC(C(O)CCCCCCCCCCCCCC3CC(C)OC3=O)O2)O1 (stereo not given) [DIHYDROCHERIMOLINE]
ED50 [1]: 2 ×10⁻⁸ ug/ml
EC50 (A549): 0.001 µg/mL (≈ 0.00156 µM)
EC50 (HT-29): 0.001 µg/mL (≈ 0.00156 µM)
LC50 (Artemia): 4.02 ppm
EC50 [2]: < 0.01 µg/mL

CCCCCCCCCCCC[C@H](O)[C@@H]1CC[C@@H]([C@@H](O)CCCCCC(=O)CCCCC2CC(CC(C)=O)C(=O)O2)O1 (stereo not given in full) [SQUAMONE]
LC50 (Artemia): 2.1 ppm

CCCCCCCCCC[C@@H](O)[C@@H]1CC[C@H]([C@H]2CC[C@@H]([C@@H](O)CCCCCCCCCC[C@H](O)CC3=C[C@@H](C)OC3=O)O2)O1 [ROLLINIASTATIN 1]
T/C [16]: 128%
ED50 [2]: 4.5 ×10⁻⁵ ug/ml

CN(C)[C@@H]1C(O)=C(C(N)=O)C(=O)[C@@]2(O)C(O)=C3C(=O)c4c(O)cccc4[C@@](C)(O)[C@H]3C[C@@H]12 [TETRACYCLINE]
IC50 (Plasmodium falciparum [8]): 5.39 µg/mL (≈ 12.1 µM)
IC50 (Plasmodium falciparum [14]): 3.36 µg/mL (≈ 7.57 µM)

CCCCCCCCCC[C@@H](O)[C@@H]1CC[C@H]([C@H](O)CC[C@H](O)[C@@H]2CC[C@@H](CCCCCCC[C@@H](O)CC3=C[C@H](C)OC3=O)O2)O1 [SYLVATICIN]
EC50 [1]: < 0.001 µg/mL
EC50 (A549): < 0.001 µg/mL
EC50 (HT-29): < 0.001 µg/mL
LC50 (Artemia): 26 ppm

CCCCCCCCCCCC[C@@H](O)[C@H]1CC[C@H]([C@H](O)CCCCC(=O)CCCCC[C@@H](O)CC2=C[C@H](C)OC2=O)O1 [ANNONACINONE]
EC50 (A549): 0.1 µg/mL (≈ 0.168 µM)
EC50 (HT-29): 1 µg/mL (≈ 1.68 µM)
ED50 [2]: 1 ×10⁻⁶ ug/ml

CCCCCCCCCCCCCC[C@@H](O)[C@H]1CC[C@H]([C@H](O)CC[C@H](O)CCCCC[C@@H](O)CC2=C[C@H](C)OC2=O)O1 [GONIOTHALAMICIN]
IC50 (Plasmodium falciparum [8]): 1.59 µg/mL (≈ 2.66 µM)
IC90 (Plasmodium falciparum [8]): 23.6 µg/mL (≈ 39.6 µM)
inhibition (INH) [3]: 68%
EC50 [1]: < 0.01 µg/mL
Activity (Calliphora vicina [12]): 100%
IC50 (Plasmodium falciparum [14]): 1.08 µg/mL (≈ 1.82 µM)
IC90 (Plasmodium falciparum [14]): 8.23 µg/mL (≈ 13.8 µM)
Activity (Aedes aegypti): 100%
LC50 (Artemia): 37 ppm
EC50 [2]: < 0.1 µg/mL
